Source: US20130204033A1, “ANTIPROLIFERATIVE COMPOUNDS, CONJUGATES THEREOF, METHODS THEREFOR, AND USES THEREOF” (Medarex, Inc., priority 2009, published 2013)
Read-outs that look alike come from different tables or passages of the source.

Tests used:
Format in all cases: cell-based, human
[1] = test system: Hep3B; experiment: 3H thymidine proliferation assay, Hep3B
Method: (§1) This example generally describes the procedures used to assay the antiproliferative activity of compounds of this invention or their conjugates. Human tumor cell lines were obtained from the American Type Culture Collection (ATCC), P.O. Box 1549, Manassas, Va. 20108, USA, and cultured according to instruction from the ATCC. Cells were seeded at 1.0×10^3 or 1.0×10^4 cells/well in 96-well plates for 3 h for ATP assays or ^3H thymidine assays, respectively. 1:3 serial dilutions of free (unconjugated) compounds or their conjugates were added to the wells. Plates were allowed to incubate for 24 to 72 h. The ^3H thymidine plates were pulsed with 1.0 μCi of ^3H-thymidine per well for the last 24 hours of the total incubation period, harvested, and read on a Top Count Scintillation Counter (Packard Instruments, Meriden, Conn.). ATP levels in the ATP plates were measured using the […]-GLO® Luminescent Cell Viability kit following the manufacturer's manual and read on a GLOMAX® 20/20 luminometer (both from Promega, Madison, Wis., USA). The EC50 values—the concentration at which an agent inhibits or reduces cell proliferation by 50% —were determined using PRISM™ software, version 4.0 (GraphPad Software, La Jolla, Calif., USA).
(§2) Using the ^3H thymidine or the ATP luminescence assay, or both, the activities of compounds of this invention were assayed against the following cancer cell lines: HCT-15 (colorectal cancer, multi-drug resistant (MDR)); Hep3B (liver cancer); LNCaP (prostate cancer, androgen receptor positive (AR^+)); MDA-MB-231 (breast cancer, estrogen receptor, progesterone receptor, and Her2 negative (triple negative)); A2058 (melanoma); U-87 MG (glioblastoma); NCI-H460 (NSCLC); A549 (NSCLC); HPAC (pancreatic cancer, primary); PC3 (prostate cancer, AR); BT474 (breast cancer, Her2 highly positive (Her2hi)); SKOV3 (ovarian cancer, Her2hi); 786-O (renal cancer); UO-31 (renal cancer, MDR); NCI-H740 (SCLC); DMS53 (SCLC); SK-BR3 (breast cancer, Her2hi); ZR-75 (breast cancer, estrogen receptor positive); OVCAR3 (ovarian cancer); HL-60 (APL); OVCAR8/Adr (ovarian cancer, MDR); CEM-Cl (ALL); Nomo-1 (AML); RPMI-8226 (MM)); Raji (lymphoma); SW-480 (colorectal cancer, metastatic); SW-620 (colorectal cancer); and H226 (lung cancer). (Not all compounds were assayed against all cell lines.)
(§3) Table 2 provides the data for proliferation assays using the ^3H thymidine method, with an incubation period of 72 h.

[2] = test system: MDA-MB-231; experiment: ATP luminescence proliferation assay, MDA-MB-231
Method: as §1, §2
(§4) Table 3 provides the data for the ATP luminescence proliferation assays, with an incubation period of 48, 72, or 96 h, as noted.

[3] = test system: MDA-MB-231; experiment: 3H thymidine proliferation assay, MDA-MB-231
Method: as §1, §2, §3

[4] = test system: HL-60; experiment: ATP luminescence proliferation assay, HL-60
Method: as §1, §2
FIGS. 12a and 12b show illustrative plots for ATP luminescence proliferation assays for a second set of compounds of this invention, against HL-60 and 786-O cells, respectively, with an incubation period of 72 h. FIGS. 12c and 12d show the plots for ^3H thymidine proliferation assays for the same set of compounds, again against HL-60 and 786-O cells, respectively, with a 72 h incubation period. In each instance, doxorubicin was used as a comparative compound.
as §4

[5] = test system: SK-BR3; experiment: ATP luminescence proliferation assay, SK-BR3
Method: as §1, §2, §4

[6] = test system: OVCAR3; experiment: ATP luminescence proliferation assay, OVCAR3
Method: as §1, §2, §4

[7] = test system: OVCAR3; experiment: 3H thymidine proliferation assay, OVCAR3
Method: as §1, §2, §3

[8] = test system: RPMI-8226; experiment: ATP luminescence proliferation assay, RPMI-8226
Method: as §1, §2, §4

[9] = test system: ZR-75; experiment: ATP luminescence proliferation assay, ZR-75
Method: as §1, §2, §4

[10] = test system: A549; experiment: ATP luminescence proliferation assay, A549
Method: as §1, §2, §4

[11] = Homo sapiens, Hep3B, read-out: EC50, Hep3B, 3H thymidine method, 72 h incubation
[12] = Homo sapiens, MDA-MB-231, 48 h, read-out: EC50 MDA-MB-231 (48 h), ATP luminescence, MDA-MB-231, 48 h incubation
[13] = Homo sapiens, MDA-MB-231, read-out: EC50, MDA-MB-231, 3H thymidine method, 72 h incubation
[14] = Homo sapiens, HL-60, 72 h, read-out: EC50 HL-60 (72 h), ATP luminescence, HL-60, 72 h incubation
[15] = Homo sapiens, SK-BR-3, 48 h, read-out: EC50 SK-BR3 (48 h), ATP luminescence, SK-BR3, 48 h incubation
[16] = Homo sapiens, OVCAR-3, 48 h, read-out: EC50 OVCAR3 (48 h), ATP luminescence, OVCAR3, 48 h incubation
[17] = Homo sapiens, OVCAR-3, read-out: EC50, OVCAR3, 3H thymidine method, 72 h incubation
[18] = Homo sapiens, RPMI-8226, 72 h, read-out: EC50 RPMI-8226 (72 h), ATP luminescence, RPMI-8226, 72 h incubation
[19] = Homo sapiens, ZR75, 48 h, read-out: EC50 ZR-75 (48 h), ATP luminescence, ZR-75, 48 h incubation
[20] = 3H thymidine method, 72 h incubation, read-out: EC50, Hep3B
[21] = ATP luminescence, MDA-MB-231, 72 h incubation, read-out: EC50 MDA-MB-231 (72 h)
[22] = 3H thymidine method, 72 h incubation, read-out: EC50, MDA-MB-231
[23] = ATP luminescence, HL-60, 72 h incubation, read-out: EC50 HL-60 (72 h)
[24] = ATP luminescence, SK-BR3, 48 h incubation, read-out: EC50 SK-BR3 (48 h)
[25] = ATP luminescence, OVCAR3, 48 h incubation, read-out: EC50 OVCAR3 (48 h)
[26] = 3H thymidine method, 72 h incubation, read-out: EC50, OVCAR3
[27] = ATP luminescence, RPMI-8226, 72 h incubation, read-out: EC50 RPMI-8226 (72 h)
[28] = ATP luminescence, ZR-75, 48 h incubation, read-out: EC50 ZR-75 (48 h)
[29] = Homo sapiens, MDA-MB-231, 72 h, read-out: EC50 MDA-MB-231 (72 h), ATP luminescence, MDA-MB-231, 72 h incubation
[30] = ATP luminescence, MDA-MB-231, 48 h incubation, read-out: EC50 MDA-MB-231 (48 h)

| SMILES | EC50 [1, 11] [nM] | EC50 [3, 13] [nM] | EC50 [4, 14] [nM] | EC50 [5, 15] [nM] | EC50 [6, 16] [nM] | EC50 [7, 17] [nM] | EC50 [8, 18] [nM] | EC50 [9, 19] [nM] | EC50 [1, 20] [nM] | EC50 [2, 21] [nM] | EC50 [3, 22] [nM] | EC50 [4, 23] [nM] | EC50 [5, 24] [nM] | EC50 [6, 25] [nM] | EC50 [7, 26] [nM] | EC50 [8, 27] [nM] | EC50 [9, 28] [nM] | also measured |
| --- | --- | --- | --- | --- | --- | --- | --- | --- | --- | --- | --- | --- | --- | --- | --- | --- | --- | --- |
| CC[C@H](C)[C@H](NC(=O)[C@H]1CCCCN1C)C(=O)N(C)[C@H](C[C@@H](OC)c1nc(C(=O)NC(Cc2ccccc2)C[C@H](C)C(=O)O)cs1)C(C)C (some centres unmarked) [Compound 15] | 1.6 | 1.3 | 2.7 | 3.9 | > 100 | > 100 | 2.6 | 13 | – | – | – | – | – | – | – | – | – | EC50 [2, 12]: 5.6 nM |
| CC[C@H](C)[C@H](NC(=O)[C@H]1CCCCN1C)C(=O)N(COC(=O)CC(C)C)[C@H](C[C@@H](O)c1nc(C(=O)N[C@@H](Cc2ccccc2)C(=O)OC)cs1)C(C)C [Compound 28] | – | – | – | – | – | – | – | – | 24 | 16 | > 100 | 2.9 | 7.8 | 14 | 3.1 | 10 | 16 | – |
| CC[C@H](C)[C@H](NC(=O)[C@H]1CCCCN1C)C(=O)N(C)[C@H](C[C@@H](OC)c1nc(C(=O)N[C@H](CC(=O)OC)Cc2ccccc2)cs1)C(C)C [Compound 25] | 305 | 236 | – | > 3000 | > 3000 | 379 | 235 | 1000 | – | – | – | – | – | – | – | – | – | EC50 [2, 29]: 202 nM; EC50 ([10]; Homo sapiens, A549, 48 h, read-out: EC50 A549 (48 h), ATP luminescence, A549, 48 h incubation): 111 nM; EC50 ([4]; Homo sapiens, HL-60, 48 h, read-out: EC50 HL-60 (48 h), ATP luminescence, HL-60, 48 h incubation): 224 nM |
| CCCC(NC(=O)c1csc([C@@H](C[C@H](C(C)C)N(C)C(=O)[C@@H](NC(=O)[C@H]2CCCCN2C)[C@@H](C)CC)OC)n1)C(=O)OC (some centres unmarked) [Compound 17] | > 100 | 84 | 7.4 | 24 | > 100 | > 100 | 15 | 24 | – | – | – | – | – | – | – | – | – | EC50 [2, 12]: 65 nM |
| CC[C@H](C)[C@H](NC(=O)[C@H]1CCCCN1C)C(=O)N(C)[C@H](C[C@@H](OC)c1nc(C(=O)N[C@@H](Cc2ccccc2)C(=O)N[C@@H](C)C(=O)OC)cs1)C(C)C [Compound 24] | 32 | 33 | 6.4 | 8.9 | 29 | 90 | 8.4 | 8.4 | – | – | – | – | – | – | – | – | – | EC50 [2, 29]: 13 nM |
| CC[C@H](C)[C@H](NC(=O)[C@H]1CCCCN1C)C(=O)N(C)[C@H](C[C@@H](OC(C)=O)c1nc(C(=O)N[C@@H](Cc2ccc(N)cc2)C(=O)O)cs1)C(C)C [Compound 56] | – | – | – | – | – | – | – | – | > 100 | – | > 100 | > 100 | > 100 | > 100 | > 100 | 5.7 | > 100 | EC50 [2, 30]: > 100 nM |
| CC[C@H](C)[C@H](NC(=O)[C@H]1CCCCN1C)C(=O)N(COC(=O)CC(C)C)[C@H](C[C@@H](OC(C)=O)c1nc(C(=O)N[C@@H](Cc2ccccc2)C(=O)OC)cs1)C(C)C [Compound 29] | – | – | – | – | – | – | – | – | 0.041 | 5.1 | 0.13 | – | 3.6 | > 100 | 0.02 | 1 | 15 | EC50 ([10]; ATP luminescence, A549, 48 h incubation, read-out: EC50 A549 (48 h)): 3.9 nM; EC50 ([4]; ATP luminescence, HL-60, 48 h incubation, read-out: EC50 HL-60 (48 h)): 0.59 nM |
| CC[C@H](C)[C@H](NC(=O)[C@H]1CCCCN1C)C(=O)N(C)[C@H](C[C@@H](OC)c1nc(C(=O)N[C@@H](Cc2ccccc2)C(=O)OC)cs1)C(C)C [Compound 16] | – | – | – | – | – | – | – | – | > 100 | – | > 100 | 2.8 | 6.6 | > 100 | > 100 | 15 | 11 | EC50 [2, 30]: 28 nM |
| CCC[C@H](NC(=O)[C@H](Cc1ccccc1)NC(=O)c1csc([C@@H](C[C@H](C(C)C)N(C)C(=O)[C@@H](NC(=O)[C@H]2CCCCN2C)[C@@H](C)CC)OC)n1)C(=O)OC [Compound 19] | – | – | – | – | – | – | – | – | 52 | 32 | – | 7.7 | 3.9 | 25 | 53 | 9.6 | 20 | – |
| CC[C@H](C)[C@H](NC(=O)[C@H]1CCCCN1C)C(=O)N(C)[C@H](C[C@@H](OC)c1nc(C(=O)N[C@@H](Cc2ccc(N)cc2)CC(C)C(=O)O)cs1)C(C)C (some centres unmarked) [Compound 51] | – | – | – | – | – | – | – | – | 4.2 | – | 8.7 | – | 13 | 5.5 | 2.5 | 5.2 | 19 | – |
